Source: patent publication US9139615B2, “High-affinity, dimeric inhibitors of PSD-95 as efficient neuroprotectants against ischemic brain damage and for treatment of pain” (University of Copenhagen, priority 2011, dated 2015)
Where no end group is shown, it is not given here.

Biological target: T1, PDZ1-2 of PSD-95 (Homo sapiens, UniProt P78352)
T1 construct: made in house; host or cells: E. coli BL21-DE3 pLysS
Assay: Fluorescence polarization (FP) assay, affinity for PDZ1-2 of PSD-95
Assay type: binding
Conditions: Ki ± SEM, affinity towards PDZ1-2 of PSD-95, heterologous competition, probe AB143 0.5 nM, PDZ1-2 […], TBS pH 7.4; IC50 converted to Ki
Excerpt: VI.i. Fluorescence Polarization (FP) Assay: as described below, Example 1 provides a convenient and reliable way to monitor and evaluate the inhibitor properties of a PSD-95 inhibitor of the invention. The FP assay allows a wide range of peptide analogues to be tested and compared with respect to their interaction with PDZ domains, and their specificity with respect to the tandem PDZ1-2 of PSD-95. PDZ1-2 is expressed using standard recombinant DNA technology known to those skilled in the art.
More specifically, the assay is based on a heterologous competition binding assay, where the affinity measured as IC50 of a given (non-fluorescent) peptide analogue for a PDZ domain is measured in the presence of a fixed concentration of a fluorescent labeled dimeric ligand (AB143; FIG. 4). Determined IC50 values are converted to Ki values (Nikolovska-Coleska et al, Anal. Biochem. 2004, 332, p. 261-273). The 5-FAM fluorophore may be attached to the dimeric ligand by coupling with HATU or HBTU.
The cDNA coding for PSD-95 PDZ1-2 tandem (corresponding to residues 61-249 in the human full-length PSD95α without exon 4b) were amplified by inverted PCR and cloned in a modified His-tagged pRSET vector (Invitrogen, Carlsbad, Calif., USA). The encoded PDZ1-2 peptide further comprised the sequence, […] (SEQ ID NO: 14), which was used as a tag for purification (His-tag), and the DNA coding sequences and encoded proteins are designated as follows: HIS-PDZ1-2 DNA [SEQ ID NO: 1] encoding HIS-PDZ1-2 protein [SEQ ID NO: 2]. Competent E. coli bacteria (BL21-DE3, pLysS) were transformed with PDZ1-2 expressing construct and grown overnight on agar plates containing ampicillin (100 μg/mL) and chloramphenicol (35 μg/mL) at 37° C. Colonies were picked and used to inoculate bacterial cultures (LB medium with 50 μg/mL ampicillin). These were shaken while being incubated at 37° C. until A600 of the culture reached 0.45, at which point 1 mM isopropyl β-D-1-thiogalactopyranoside was added. Induced cultures were incubated over night at 30° C. (PDZ1-2). Cells were harvested by spinning at 10,000 g for 10 min at 4° C. and re-suspended in lysis buffer (50 mM Tris/HCL pH 7.5, 1 mM PMSF, 25 μg/ml DNAse, 40 mM Mg2SO4). The cells were destroyed using a cell disruptor apparatus at 26 KPsi. The cell lysate was spun down at 35,000 g for 1 hour and the supernatant filtered with a 0.45 μm and a 0.22 μm filter. Purification of expressed PDZ1-2 peptide was performed with first a nickel (II)-charged column (HisTrap™ HP, GE Healthcare, UK) equilibrated with Tris-buffer (Tris/HCl buffer 50 mM, pH 7.5) followed by gel-filtration. For gel-filtration the PDZ1-2 sample was loaded on a Superdex™ 75 HR 10/30 column (GE Healthcare, UK) equilibrated with Tris buffer (20 mM Tris/HCL, pH 7.5) with a constant flow rate at 0.5 mL/min. The relevant fractions were analyzed on a SDS-PAGE gel stained by a standard silver staining protocol. The final purification was analyzed by electrospray ionization liquid chromatography-mass spectrometry (ESI-LC/MS) to get the exact molecular weight and thereby verify the identity of the PDZ1-2 domain. Molar extinction coefficients were found by amino acids analysis (Alphalyse, Odense, Denmark) and thereafter used for measuring protein concentrations. […]
An in vitro affinity measurement assay was developed based on the fluorescence polarization principle in order to provide affinity constants (Ki values) between synthesized ligands (e.g. dimeric inhibitors) and PDZ1-2 of PSD-95. […]

T1 sequence (P78352 with tags, fused parts or gaps): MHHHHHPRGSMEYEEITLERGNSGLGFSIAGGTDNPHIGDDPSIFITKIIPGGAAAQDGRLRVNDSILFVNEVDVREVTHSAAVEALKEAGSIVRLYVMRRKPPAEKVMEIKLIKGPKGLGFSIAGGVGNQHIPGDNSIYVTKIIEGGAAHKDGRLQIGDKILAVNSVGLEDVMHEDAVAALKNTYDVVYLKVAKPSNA

YGRKKRRQRRRKLSSIESDV [Tat-NR2B9c, reference compound]
Ki: 4.6 ± 0.3 µM
